# Square brackets hold non-standard residues; d marks the D form. Peptide text beside a SMILES is read from it. * marks the point of attachment. His(Trt) = N[C@@H](Cc1cn(C(c2ccccc2)(c2ccccc2)c2ccccc2)cn1)C(=O)O; Biotin = O=C1N[C@H]2[C@H](CS[C@H]2CCCCC(=O)*)N1; Bip = N[C@@H](Cc1ccc(-c2ccccc2)cc1)C(=O)O; Octanoyl = CCCCCCCC(=O)*
# Key:
# GPR39 [1] = target: T1, GPR39 (Homo sapiens, UniProt O43194); assay: luciferase assay system (SRE luciferase reporter gene) for GPR39 in CV-1 cells; conditions: for EC50: EC50, CV-1 cells, GPR39 and SRE luciferase adenovirus, treated 6 hours, luminometer; for activity level for GPR39 (in words): comment on Table 3
# T1 sequence (O43194 1-453): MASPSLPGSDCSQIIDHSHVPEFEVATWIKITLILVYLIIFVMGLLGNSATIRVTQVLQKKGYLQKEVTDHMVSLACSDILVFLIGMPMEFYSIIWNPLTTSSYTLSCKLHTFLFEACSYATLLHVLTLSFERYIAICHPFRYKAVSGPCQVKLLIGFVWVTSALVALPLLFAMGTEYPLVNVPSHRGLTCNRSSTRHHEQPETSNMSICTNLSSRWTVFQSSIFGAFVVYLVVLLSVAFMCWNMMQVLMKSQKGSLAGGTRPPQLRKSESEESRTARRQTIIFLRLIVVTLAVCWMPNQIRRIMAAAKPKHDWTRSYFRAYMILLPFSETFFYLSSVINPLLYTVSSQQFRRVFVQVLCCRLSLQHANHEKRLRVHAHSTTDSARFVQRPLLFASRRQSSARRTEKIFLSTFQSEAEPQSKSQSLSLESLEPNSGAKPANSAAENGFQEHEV
# Description: (§1) Specifically, the fibroblast cell line CV-1 (1×10^5 cells/ml, Korea Cell Line Bank) was cultured in a 96 well cell culture plate for 24 hours, and then treated with GPR39 inserted into adenovirus and SRE (serum response element) luciferase at 50 MOI (multiplicity of infection) and 25 MOI virus for 3 hours, respectively, and then cultured for 24 hours.
# GPR39 [2] = target: T1, GPR39
# Description: as §1
Structure (SMILES),EC50 (GPR39 [1]),ECmax (-fold induction over basal) (GPR39 [2]),activity level for GPR39 (in words) (GPR39 [1])
"CCCCCCCC(=O)NCCCC[C@H](NC(=O)[C@H](Cc1cn(C(c2ccccc2)(c2ccccc2)c2ccccc2)cn1)NC(=O)CCCC[C@@H]1SC[C@@H]2NC(=O)N[C@@H]21)C(=O)N[C@@H](Cc1ccc(-c2ccccc2)cc1)C(=O)N[C@@H](Cc1ccc(O)cc1)C(=O)O [HKFY-45, ((S)-3-([1,1′-biphenyl]-4-yl)-2-((S)-6-octanamido-2-((S)-2-(5-((3aS,4S,6aR)-2-oxohexahydro-1H-thieno[3,4-d]imidazol-4-yl)pentanamido)-3-(1-trityl-1H-imidazol-4-yl)propanamido)hexanamido)propanoyl)-L-tyrosine] (Biotin-[His(Trt)]K(Octanoyl)[Bip]Y-OH)",140 ± 50 nM,21 ± 2.58 -fold induction over basal,–
"CCCCCCCC(=O)NCCCC[C@H](NC(=O)[C@@H](N)Cc1cn(C(c2ccccc2)(c2ccccc2)c2ccccc2)cn1)C(=O)N[C@@H](Cc1ccccc1)C(=O)N[C@@H](Cc1c[nH]c2ccccc12)C(=O)O [HKFY-46, N6-octanoyl-N2-(Nt-trityl-L-histidyl)-L-lysyl-L-phenylalanyl-L-tryptophan] (H-[His(Trt)]K(Octanoyl)FW-OH)",260 ± 150 nM,20 ± 0.28 -fold induction over basal,–
"CCCCCCCC(=O)NCCCC[C@H](NC(=O)[C@@H](N)Cc1cn(-c2ccc(C(C)(C)C)cc2)cn1)C(=O)N[C@H](Cc1ccc(C)cc1)C(=O)N[C@@H](Cc1ccc(O)cc1)C(=O)O [HKFY-61, ((R)-2-((S)-2-((S)-2-amino-3-(1-(4-(tert-butyl)phenyl)-1H-imidazol-4-yl)propanamido)-6-octanamidohexanamido)-3-(p-tolyl)propanoyl)-L-tyrosine]",20 ± 3 nM,9.88 ± 1.8 -fold induction over basal,–

# Now from value to compound, other results behind:
EC50 (GPR39 [1]),ECmax (-fold induction over basal) (GPR39 [2]),Structure (SMILES),activity level for GPR39 (in words) (GPR39 [1])
260 ± 10 nM,8.5 ± 2.3 -fold induction over basal,"CCCCCCCC(=O)NCCCC[C@H](NC(=O)[C@@H](N)Cc1c[nH]c(-c2ccccc2)n1)C(=O)N[C@H](Cc1ccc(C)cc1)C(=O)N[C@@H](Cc1ccc(O)cc1)C(=O)O [HKFY-57, ((R)-2-((S)-2-((S)-2-amino-3-(2-phenyl-1H-imidazol-4-yl)propanamido)-6-octanamidohexanamido)-3-(p-tolyl)propanoyl)-L-tyrosine]",–
20 ± 2 nM,9.12 ± 2.1 -fold induction over basal,"CCCCCCCC(=O)NCCCC[C@H](NC(=O)[C@@H](N)Cc1cn(-c2ccccc2)cn1)C(=O)N[C@H](Cc1ccc(C)cc1)C(=O)N[C@@H](Cc1ccc(O)cc1)C(=O)O [HKFY-58, ((R)-2-((S)-2-((S)-2-amino-3-(1-phenyl-1H-imidazol-4-yl)propanamido)-6-octanamidohexanamido)-3-(p-tolyl)propanoyl)-L-tyrosine]",–
–,13.5 ± 1.8 -fold induction over basal,"CCCCCCCC(=O)NCCCC[C@H](NC(=O)[C@@H](N)Cc1c[nH]c(-c2cccs2)n1)C(=O)N[C@H](Cc1ccc(C)cc1)C(=O)N[C@@H](Cc1ccc(O)cc1)C(=O)O [HKFY-63, ((R)-2-((S)-2-((S)-2-amino-3-(2-(thiophen-2-yl)-1H-imidazol-4-yl)propanamido)-6-octanamidohexanamido)-3-(p-tolyl)propanoyl)-L-tyrosine]",higher activity level than other HJKFY derivatives
7 ± 1 nM,16 ± 1.5 -fold induction over basal,"CCCCCCCC(=O)NCCCC[C@H](NC(=O)[C@@H](N)Cc1cn(C(c2ccccc2)c2ccc(OC)cc2)cn1)C(=O)N[C@H](Cc1ccc(C)cc1)C(=O)N[C@@H](Cc1ccc(O)cc1)C(=O)O (stereo partly drawn) [HKFY-64, ((2R)-2-((2S)-2-((2S)-2-amino-3-(1-((4-methoxyphenyl)(phenyl)methyl)-1H-imidazol-4-yl)propanamido)-6-octanamidohexanamido)-3-(p-tolyl)propanoyl)-L-tyrosine]",higher activity level than other HJKFY derivatives

# From patent publication US20230212222A1 (ANYGEN CO., LTD., priority 2020, published 2023)
